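Growth conditions: 96-well plates. Treatment: test compound, 48 hours, 5 concentrations. Analysis: linear interpolation between bracketing concentrations; unreached endpoints set to highest concentration. GI50: concentration for 50% inhibition of growth. Definition used: TGI = concentration required for complete inhibition of growth.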

The first experiment relates to EKVX NSCLC. The experiment is described as follows: NCI anticancer screen, dose series, 48 h.
Regarding `COc1cc(OC)cc(-c2ccc(-c3ccc(C(=N)N)o3)o2)c1`, the GI50 was 5.09 µM and the TGI is 18.5 µM.
As to `C[C@]12CC[C@H](O)CC1=CC[C@@H]1[C@@H]2CC[C@]2(C)C(c3cccnc3)=CC[C@@H]12`, the GI50 was 6.08 µM and the TGI was above 100 µM.
In the case of `CC1OC(n2cc(F)c(=O)[nH]c2=O)CCC1O` (stereo not given), the TGI was above 100 µM.
Take `O=C(NCCOCCOCCNc1cccc2c1C(=O)N(C1CCCNC1=O)C2=O)c1cc2c(o1)C(=O)c1ccccc1C2=O` (stereo not given): the GI50 is 2.88 µM and the TGI was determined as 10.1 µM.
Take `O=C(CN1CCOCC1)Nc1ccc(Cn2nnc3c2C(=O)c2nnn(Cc4ccc(NC(=O)CN5CCOCC5)cc4)c2C3=O)cc1`: the GI50 was 1.38 µM and the TGI came out at 2.98 µM.
For the compound `O=C(c1ccco1)c1nc2ccc(C(F)(F)F)cc2[n+]([O-])c1C(F)(F)F`, the GI50 was 12.9 µM and the TGI was above 100 µM.
`CCCCC/C(C=C(C#N)C#N)=C/c1ccccc1`: the GI50 was 5.98 µM and the TGI was above 55.7 µM.
In the case of `CC1CCC2(C(=O)O)CCC3(C)C(=CCC4C5(C)CC(O)C(O)C(C)(CO)C5C(O)CC43C)C2C1C` (stereo not given), the TGI was above 100 µM.
Take `COc1cnc2cc(C(=O)O)c3c([N+](=O)[O-])cccc3c2c1`: the TGI was above 100 µM.
Turning to `COc1ccc(C2=NN(C(=O)c3cc(OC)c(OC)c(OC)c3)C(c3ccc(C#N)cc3)C2)cc1OC` (stereo not given), the GI50 was 4.59 µM and the TGI is above 100 µM.
As for `CCOc1cccc(/C=N/NC(=O)c2ccccc2Nc2ccnc(C(F)(F)F)c2)c1O`, the GI50 was 0.404 µM and the TGI is above 100 µM.
As to `CC1=C(C(=O)Nc2ccc3[nH]ncc3c2)C(c2ccc3ccccc3c2)CC(=O)N1` (stereo not given), the GI50 is above 17.9 µM and the TGI was above 25 µM.

The subject of a further experiment is HS 578T breast. Briefly: NCI anticancer screen, dose series, 48 h.
Regarding `COc1cc(OC)cc(-c2ccc(-c3ccc(C(=N)N)o3)o2)c1`, the GI50 was 8120 nM and the TGI was found to be 27.3 µM.
For the compound `C[C@]12CC[C@H](O)CC1=CC[C@@H]1[C@@H]2CC[C@]2(C)C(c3cccnc3)=CC[C@@H]12`, the GI50 was 7130 nM and the TGI is above 100 µM.
`CC1OC(n2cc(F)c(=O)[nH]c2=O)CCC1O` (stereo not given) gave a TGI above 100 µM.
As for `O=C(NCCOCCOCCNc1cccc2c1C(=O)N(C1CCCNC1=O)C2=O)c1cc2c(o1)C(=O)c1ccccc1C2=O` (stereo not given), the GI50 was 2430 nM and the TGI is 7.19 µM.
Take `O=C(CN1CCOCC1)Nc1ccc(Cn2nnc3c2C(=O)c2nnn(Cc4ccc(NC(=O)CN5CCOCC5)cc4)c2C3=O)cc1`: the GI50 was 1940 nM and the TGI amounted to 8.34 µM.
For `O=C(c1ccco1)c1nc2ccc(C(F)(F)F)cc2[n+]([O-])c1C(F)(F)F`, the GI50 is above 100000 nM and the TGI was above 100 µM.
Take `CCCCC/C(C=C(C#N)C#N)=C/c1ccccc1`: the GI50 is 1870 nM and the TGI worked out at 4.76 µM.
`CC1CCC2(C(=O)O)CCC3(C)C(=CCC4C5(C)CC(O)C(O)C(C)(CO)C5C(O)CC43C)C2C1C` (stereo not given) gave a TGI of 41.5 µM.
Compound `COc1cnc2cc(C(=O)O)c3c([N+](=O)[O-])cccc3c2c1` registered a TGI above 100 µM.
For the compound `COc1ccc(C2=NN(C(=O)c3cc(OC)c(OC)c(OC)c3)C(c3ccc(C#N)cc3)C2)cc1OC` (stereo not given), the GI50 is 1530 nM and the TGI was above 26 µM.
For `CCOc1cccc(/C=N/NC(=O)c2ccccc2Nc2ccnc(C(F)(F)F)c2)c1O`, the GI50 is 6920 nM and the TGI was above 100 µM.
For `CC1=C(C(=O)Nc2ccc3[nH]ncc3c2)C(c2ccc3ccccc3c2)CC(=O)N1` (stereo not given) the same measures were 873 nM and above 25 µM.

The next experiment concerns HT29 colon. The experiment is described as follows: NCI anticancer screen, dose series, 48 h.
As for `COc1cc(OC)cc(-c2ccc(-c3ccc(C(=N)N)o3)o2)c1`, the GI50 is 2.77 µM and the TGI is 9.04 µM.
Take `C[C@]12CC[C@H](O)CC1=CC[C@@H]1[C@@H]2CC[C@]2(C)C(c3cccnc3)=CC[C@@H]12`: the GI50 is 56.2 µM and the TGI was above 100 µM.
Compound `CC1OC(n2cc(F)c(=O)[nH]c2=O)CCC1O` (stereo not given) came in with a TGI above 100 µM.
Regarding `O=C(NCCOCCOCCNc1cccc2c1C(=O)N(C1CCCNC1=O)C2=O)c1cc2c(o1)C(=O)c1ccccc1C2=O` (stereo not given), the GI50 is 2.93 µM and the TGI came out at 8.05 µM.
`O=C(CN1CCOCC1)Nc1ccc(Cn2nnc3c2C(=O)c2nnn(Cc4ccc(NC(=O)CN5CCOCC5)cc4)c2C3=O)cc1`: the GI50 was 0.364 µM and the TGI amounted to 1.53 µM.
For the compound `O=C(c1ccco1)c1nc2ccc(C(F)(F)F)cc2[n+]([O-])c1C(F)(F)F`, the GI50 is 29.9 µM and the TGI was above 100 µM.
`CCCCC/C(C=C(C#N)C#N)=C/c1ccccc1`: the GI50 is 3.61 µM and the TGI worked out at 12.3 µM.
The compound `CC1CCC2(C(=O)O)CCC3(C)C(=CCC4C5(C)CC(O)C(O)C(C)(CO)C5C(O)CC43C)C2C1C` (stereo not given) registered a TGI above 100 µM.
On to `COc1cnc2cc(C(=O)O)c3c([N+](=O)[O-])cccc3c2c1`, for which the TGI is above 100 µM.
As to `COc1ccc(C2=NN(C(=O)c3cc(OC)c(OC)c(OC)c3)C(c3ccc(C#N)cc3)C2)cc1OC` (stereo not given), the GI50 was 2.42 µM and the TGI was above 32.1 µM.
For `CCOc1cccc(/C=N/NC(=O)c2ccccc2Nc2ccnc(C(F)(F)F)c2)c1O` the same measures were 3.79 µM and above 100 µM.
On to `CC1=C(C(=O)Nc2ccc3[nH]ncc3c2)C(c2ccc3ccccc3c2)CC(=O)N1` (stereo not given), for which the GI50 is 20 µM and the TGI was above 25 µM.

A further experiment relates to MDA-MB-435. Briefly: NCI anticancer screen, dose series, 48 h.
In the case of `COc1cc(OC)cc(-c2ccc(-c3ccc(C(=N)N)o3)o2)c1`, the GI50 was 1520 nM and the TGI turned out to be 3.12 µM.
As for `C[C@]12CC[C@H](O)CC1=CC[C@@H]1[C@@H]2CC[C@]2(C)C(c3cccnc3)=CC[C@@H]12`, the GI50 was 12200 nM and the TGI is above 100 µM.
Compound `CC1OC(n2cc(F)c(=O)[nH]c2=O)CCC1O` (stereo not given) showed a TGI above 100 µM.
In the case of `O=C(NCCOCCOCCNc1cccc2c1C(=O)N(C1CCCNC1=O)C2=O)c1cc2c(o1)C(=O)c1ccccc1C2=O` (stereo not given), the GI50 was 1620 nM and the TGI amounted to 3.05 µM.
On to `O=C(CN1CCOCC1)Nc1ccc(Cn2nnc3c2C(=O)c2nnn(Cc4ccc(NC(=O)CN5CCOCC5)cc4)c2C3=O)cc1`, for which the GI50 was 177 nM and the TGI was 0.329 µM.
For the compound `O=C(c1ccco1)c1nc2ccc(C(F)(F)F)cc2[n+]([O-])c1C(F)(F)F`, the GI50 is above 100000 nM and the TGI is above 100 µM.
On to `CCCCC/C(C=C(C#N)C#N)=C/c1ccccc1`, for which the GI50 was 1770 nM and the TGI was 4.11 µM.
As to `CC1CCC2(C(=O)O)CCC3(C)C(=CCC4C5(C)CC(O)C(O)C(C)(CO)C5C(O)CC43C)C2C1C` (stereo not given), the TGI was above 100 µM.
`COc1cnc2cc(C(=O)O)c3c([N+](=O)[O-])cccc3c2c1` yielded a TGI above 100 µM.
Regarding `COc1ccc(C2=NN(C(=O)c3cc(OC)c(OC)c(OC)c3)C(c3ccc(C#N)cc3)C2)cc1OC` (stereo not given), the GI50 was 334 nM and the TGI was found to be 1.24 µM.
Turning to `CCOc1cccc(/C=N/NC(=O)c2ccccc2Nc2ccnc(C(F)(F)F)c2)c1O`, the GI50 is 1070 nM and the TGI was 77.4 µM.
For `CC1=C(C(=O)Nc2ccc3[nH]ncc3c2)C(c2ccc3ccccc3c2)CC(=O)N1` (stereo not given), in that order: above 25000 nM and above 25 µM.

A further experiment deals with NCI/ADR-RES ovarian. The experiment is described as follows: NCI anticancer screen, dose series, 48 h.
Turning to `COc1cc(OC)cc(-c2ccc(-c3ccc(C(=N)N)o3)o2)c1`, the GI50 is 8.26 µM and the TGI stood at 22.4 µM.
On to `C[C@]12CC[C@H](O)CC1=CC[C@@H]1[C@@H]2CC[C@]2(C)C(c3cccnc3)=CC[C@@H]12`, for which the GI50 is 38.4 µM and the TGI is above 100 µM.
As to `CC1OC(n2cc(F)c(=O)[nH]c2=O)CCC1O` (stereo not given), the TGI was above 100 µM.
For the compound `O=C(NCCOCCOCCNc1cccc2c1C(=O)N(C1CCCNC1=O)C2=O)c1cc2c(o1)C(=O)c1ccccc1C2=O` (stereo not given), the GI50 is 10.3 µM and the TGI stood at 32 µM.
With `O=C(CN1CCOCC1)Nc1ccc(Cn2nnc3c2C(=O)c2nnn(Cc4ccc(NC(=O)CN5CCOCC5)cc4)c2C3=O)cc1`, the GI50 is above 100 µM and the TGI is above 100 µM.
For `O=C(c1ccco1)c1nc2ccc(C(F)(F)F)cc2[n+]([O-])c1C(F)(F)F`, the GI50 was above 100 µM and the TGI was above 100 µM.
In the case of `CCCCC/C(C=C(C#N)C#N)=C/c1ccccc1`, the GI50 is 2.48 µM and the TGI was determined as 6.46 µM.
For `CC1CCC2(C(=O)O)CCC3(C)C(=CCC4C5(C)CC(O)C(O)C(C)(CO)C5C(O)CC43C)C2C1C` (stereo not given), the TGI is above 100 µM.
For `COc1cnc2cc(C(=O)O)c3c([N+](=O)[O-])cccc3c2c1`, the TGI is above 100 µM.
Consider `COc1ccc(C2=NN(C(=O)c3cc(OC)c(OC)c(OC)c3)C(c3ccc(C#N)cc3)C2)cc1OC` (stereo not given), for which the GI50 is 0.603 µM and the TGI is 11.1 µM.
`CCOc1cccc(/C=N/NC(=O)c2ccccc2Nc2ccnc(C(F)(F)F)c2)c1O`: the GI50 was 0.506 µM and the TGI came to 26.3 µM.
Take `CC1=C(C(=O)Nc2ccc3[nH]ncc3c2)C(c2ccc3ccccc3c2)CC(=O)N1` (stereo not given): the GI50 is above 25 µM and the TGI is above 25 µM.
